Results: US9493506B2 (Enanta Pharmaceuticals, Inc., priority 2010, dated 2016)

Columns and labels:
[1] = tested on: HCV replicon with a D168E mutation in a 1a-H77 background; assay: transient replicon assay, D168E mutation in 1a-H77 background; format: cell-based, hepatitis C virus (genotype 1a-H77); conditions: Hepatitis C virus, read-out: EC50 in a transient replicon assay with a D168E mutation in a 1a-H77 background
How it was run: (§1)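 Transient transfection of mutant replicon RNA (1a-H77 with NS2–NS5B, or 1b-N with NS3–NS5B plus E1202G/S2204I) by electroporation into IFN-cured Huh7 cells, plated at 7.5×10^3 cells per well in DMEM with 5% FBS. Serial compound dilutions added 4 h post-transfection (0.5% DMSO final).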

[2] = tested on: HCV replicon with a D168V mutation in a 1a-H77 background; assay: transient replicon assay, D168V mutation in 1a-H77 background; format: cell-based, hepatitis C virus (genotype 1a-H77); conditions: Hepatitis C virus, read-out: EC50 in a transient replicon assay with a D168V mutation in a 1a-H77 background
How it was run: as §1

[3] = tested on: HCV replicon with a R155K mutation in a 1a-H77 background; assay: transient replicon assay, R155K mutation in 1a-H77 background; format: cell-based, hepatitis C virus (genotype 1a-H77); conditions: Hepatitis C virus, read-out: EC50 in a transient replicon assay with a R155K mutation in a 1a-H77 background
How it was run: as §1

dog PK experiment = conditions: in vivo; for bioavailability: dog PK experiment, 3 mg/kg, read-out: F value (bioavailability); for AUC: dog, dosed at 3 mg/kg
Source text: Those of ordinary skill in the art are aware of the biological assays utililized to test the compounds of the invention. Regarding bioavailability data (F values), a more thorough explanation can be found in Rowland, M and Tozer, T Clinical Pharmacokinetics: Concepts and Applications Lippincott, Williams & Wilkins 3rd ed. 1995, (specifically covered on page 43).

In the case of Cc1cc(C(=O)N[C@H]2CCCCC/C=C\[C@@H]3C[C@@]3(C(=O)NS(=O)(=O)C3CC3)NC(=O)[C@@H]3C[C@@H](Oc4nc5ccccc5nc4C(C)(F)F)CN3C2=O)no1 [Example 2, N-((2R,6S,13aS,14aR,16aS,Z)-14a-(cyclopropylsulfonylcarbamoyl)-2-(3-(1,1-difluoroethyl)quinoxalin-2-yloxy)-5,16-dioxo-1,2,3,5,6,7,8,9,10,11,13a,14,14a,15,16,16a-hexadecahydrocyclopropa[e]pyrrolo[1,2-a][1,4]diazacyclopentadecin-6-yl)-5-methylisoxazole-3-carboxamide], the EC50 [1] is reported as under 3 nM, the EC50 [2] is reported as 25 to 50 nM and the EC50 [3] is reported as under 1 nM. The bioavailability (dog PK experiment) was over 100% and the AUC (dog PK experiment) was 4500 ng·h/mL.
Work on O=C(N[C@H]1CCCCC/C=C\[C@@H]2C[C@@]2(C(=O)NS(=O)(=O)C2CC2)NC(=O)[C@@H]2C[C@@H](Oc3nc4ccccc4nc3C(F)(F)F)CN2C1=O)c1ccon1 [Example 15, N-((2R,6S,13aS,14aR,16aS,Z)-14a-(cyclopropylsulfonylcarbamoyl)-5,16-dioxo-2-(3-(trifluoromethyl)quinoxalin-2-yloxy)-1,2,3,5,6,7,8,9,10,11,13a,14,14a,15,16,16a-hexadecahydrocyclopropa[e]pyrrolo[1,2-a][1,4]diazacyclopentadecin-6-yl)isoxazole-3-carboxamide] yielded a bioavailability (dog PK experiment) of over 100% and an AUC (dog PK experiment) of 3300 ng·h/mL.
Cc1onc(C(=O)N[C@H]2CCCCC/C=C\[C@@H]3C[C@@]3(C(=O)NS(=O)(=O)C3(C)CC3)NC(=O)[C@@H]3C[C@@H](Oc4nc5cc(F)ccc5nc4C(C)(F)F)CN3C2=O)c1C [Example 120, N-((2R,6S,13aS,14aR,16aS,Z)-2-(3-(1,1-difluoroethyl)-7-fluoroquinoxalin-2-yloxy)-14a-(1-methylcyclopropylsulfonylcarbamoyl)-5,16-dioxo-1,2,3,5,6,7,8,9,10,11,13a,14,14a,15,16,16a-hexadecahydrocyclopropa[e]pyrrolo[1,2-a][1,4]diazacyclopentadecin-6-yl)-4,5-methylisoxazole-3-carboxamide] gave an EC50 [1] of under 3 nM, an EC50 [2] of under 25 nM and an EC50 [3] of under 1 nM.
Work on CCc1nc2ccc(F)cc2nc1O[C@@H]1C[C@H]2C(=O)N[C@]3(C(=O)NS(=O)(=O)C4CC4)C[C@H]3/C=C\CCCCC[C@H](NC(=O)OC(C)(C)C)C(=O)N2C1 [Example 121, tert-butyl (2R,6S,13aS,14aR,16aS,Z)-14a-(cyclopropylsulfonylcarbamoyl)-2-(3-ethyl-7-fluoroquinoxalin-2-yloxy)-5,16-dioxo-1,2,3,5,6,7,8,9,10,11,13a,14,14a,15,16,16a-hexadecahydrocyclopropa[e]pyrrolo[1,2-a][1,4]diazacyclopentadecin-6-ylcarbamate] yielded an EC50 [1] of 3 to 20 nM, an EC50 [2] of 50 to 250 nM and an EC50 [3] of 1 to 10 nM.
CCc1nc2ccc(F)cc2nc1O[C@@H]1C[C@H]2C(=O)N[C@]3(C(=O)NS(=O)(=O)C4CC4)C[C@H]3/C=C\CCCCC[C@H](NC(=O)c3ccon3)C(=O)N2C1 [Example 122, N-((2R,6S,13aS,14aR,16aS,Z)-14a-(cyclopropylsulfonylcarbamoyl)-2-(3-ethyl-7-fluoroquinoxalin-2-yloxy)-5,16-dioxo-1,2,3,5,6,7,8,9,10,11,13a,14,14a,15,16,16a-hexadecahydrocyclopropa[e]pyrrolo[1,2-a][1,4]diazacyclopentadecin-6-yl)isoxazole-3-carboxamide] showed an EC50 [1] of 20 to 50 nM, an EC50 [2] of 250 to 1000 nM and an EC50 [3] of 1 to 10 nM.
In the case of CCc1nc2ccc(F)cc2nc1O[C@@H]1C[C@H]2C(=O)N[C@]3(C(=O)NS(=O)(=O)C4CC4)C[C@H]3/C=C\CCCCC[C@H](NC(=O)c3noc(C)c3C)C(=O)N2C1 [Example 123, N-((2R,6S,13aS,14aR,16aS,Z)-14a-(cyclopropylsulfonylcarbamoyl)-2-(3-ethyl-7-fluoroquinoxalin-2-yloxy)-5,16-dioxo-1,2,3,5,6,7,8,9,10,11,13a,14,14a,15,16,16a-hexadecahydrocyclopropa[e]pyrrolo[1,2-a][1,4]diazacyclopentadecin-6-yl)-4,5-dimethylisoxazole-3-carboxamide], the EC50 [1] is reported as 3 to 20 nM, the EC50 [2] is reported as 50 to 250 nM and the EC50 [3] is reported as 1 to 10 nM.
CCc1nc2ccc(F)cc2nc1O[C@@H]1C[C@H]2C(=O)N[C@]3(C(=O)NS(=O)(=O)C4CC4)C[C@H]3/C=C\CCCCC[C@H](NC(=O)c3cc(C)on3)C(=O)N2C1 [Example 124, N-((2R,6S,13aS,14aR,16aS,Z)-14a-(cyclopropylsulfonylcarbamoyl)-2-(3-ethyl-7-fluoroquinoxalin-2-yloxy)-5,16-dioxo-1,2,3,5,6,7,8,9,10,11,13a,14,14a,15,16,16a-hexadecahydrocyclopropa[e]pyrrolo[1,2-a][1,4]diazacyclopentadecin-6-yl)-5-methylisoxazole-3-carboxamide] gave an EC50 [1] of 20 to 50 nM, an EC50 [2] of 50 to 250 nM and an EC50 [3] of 1 to 10 nM.
CCc1nc2ccc(F)cc2nc1O[C@@H]1C[C@H]2C(=O)N[C@]3(C(=O)NS(=O)(=O)C4(C)CC4)C[C@H]3/C=C\CCCCC[C@H](NC(=O)OC(C)(C)C)C(=O)N2C1 [Example 125, tert-butyl (2R,6S,13aS,14aR,16aS,Z)-2-(3-ethyl-7-fluoroquinoxalin-2-yloxy)-14a-(1-methylcyclopropylsulfonylcarbamoyl)-5,16-dioxo-1,2,3,5,6,7,8,9,10,11,13a,14,14a,15,16,16a-hexadecahydrocyclopropa[e]pyrrolo[1,2-a][1,4]diazacyclopentadecin-6-ylcarbamate] showed an EC50 [1] of 3 to 20 nM, an EC50 [2] of 25 to 50 nM and an EC50 [3] of under 1 nM.
For CCc1nc2ccc(F)cc2nc1O[C@@H]1C[C@H]2C(=O)N[C@]3(C(=O)NS(=O)(=O)C4(C)CC4)C[C@H]3/C=C\CCCCC[C@H](NC(=O)c3cc(C4CC4)on3)C(=O)N2C1 [Example 151, 5-cyclopropyl-N-((2R,6S,13aS,14aR,16aS,Z)-2-(3-ethyl-7-fluoroquinoxalin-2-yloxy)-14a-(1-methylcyclopropylsulfonylcarbamoyl)-5,16-dioxo-1,2,3,5,6,7,8,9,10,11,13a,14,14a,15,16,16a-hexadecahydrocyclopropa[e]pyrrolo[1,2-a][1,4]diazacyclopentadecin-6-yl)isoxazole-3-carboxamide], the EC50 [1] was 3 to 20 nM, the EC50 [2] was under 25 nM and the EC50 [3] was 1 to 10 nM.
With CCc1nc2cccc(F)c2nc1O[C@@H]1C[C@H]2C(=O)N[C@]3(C(=O)NS(=O)(=O)C4CC4)C[C@H]3/C=C\CCCCC[C@H](NC(=O)OC(C)(C)C)C(=O)N2C1 [Example 160, tert-butyl (2R,6S,13aS,14aR,16aS,Z)-14a-(cyclopropylsulfonylcarbamoyl)-2-(3-ethyl-8-fluoroquinoxalin-2-yloxy)-5,16-dioxo-1,2,3,5,6,7,8,9,10,11,13a,14,14a,15,16,16a-hexadecahydrocyclopropa[e]pyrrolo[1,2-a][1,4]diazacyclopentadecin-6-ylcarbamate] the EC50 [1] was 20 to 50 nM, the EC50 [2] was 50 to 250 nM and the EC50 [3] was 1 to 10 nM.
With CCc1nc2cccc(F)c2nc1O[C@@H]1C[C@H]2C(=O)N[C@]3(C(=O)NS(=O)(=O)C4CC4)C[C@H]3/C=C\CCCCC[C@H](NC(=O)c3ccon3)C(=O)N2C1 [Example 161, N-((2R,6S,13aS,14aR,16aS,Z)-14a-(cyclopropylsulfonylcarbamoyl)-2-(3-ethyl-8-fluoroquinoxalin-2-yloxy)-5,16-dioxo-1,2,3,5,6,7,8,9,10,11,13a,14,14a,15,16,16a-hexadecahydrocyclopropa[e]pyrrolo[1,2-a][1,4]diazacyclopentadecin-6-yl)isoxazole-3-carboxamide] the EC50 [1] was 3 to 20 nM, the EC50 [2] was 50 to 250 nM and the EC50 [3] was 1 to 10 nM.
CCc1nc2cccc(F)c2nc1O[C@@H]1C[C@H]2C(=O)N[C@]3(C(=O)NS(=O)(=O)C4CC4)C[C@H]3/C=C\CCCCC[C@H](NC(=O)c3cc(C)on3)C(=O)N2C1 [Example 162, N-((2R,6S,13aS,14aR,16aS,Z)-14a-(cyclopropylsulfonylcarbamoyl)-2-(3-ethyl-8-fluoroquinoxalin-2-yloxy)-5,16-dioxo-1,2,3,5,6,7,8,9,10,11,13a,14,14a,15,16,16a-hexadecahydrocyclopropa[e]pyrrolo[1,2-a][1,4]diazacyclopentadecin-6-yl)-5-methylisoxazole-3-carboxamide] gave an EC50 [1] of 3 to 20 nM, an EC50 [2] of 50 to 250 nM and an EC50 [3] of 1 to 10 nM.
Work on CCc1nc2cccc(F)c2nc1O[C@@H]1C[C@H]2C(=O)N[C@]3(C(=O)NS(=O)(=O)C4CC4)C[C@H]3/C=C\CCCCC[C@H](NC(=O)c3noc(C)c3C)C(=O)N2C1 [Example 163, N-((2R,6S,13aS,14aR,16aS,Z)-14a-(cyclopropylsulfonylcarbamoyl)-2-(3-ethyl-8-fluoroquinoxalin-2-yloxy)-5,16-dioxo-1,2,3,5,6,7,8,9,10,11,13a,14,14a,15,16,16a-hexadecahydrocyclopropa[e]pyrrolo[1,2-a][1,4]diazacyclopentadecin-6-yl)-4,5-dimethylisoxazole isoxazole-3-carboxamide] yielded an EC50 [1] of under 3 nM, an EC50 [2] of 25 to 50 nM and an EC50 [3] of under 1 nM.
